In patent US20210186970A1, “SELECTIVE CALCIUM CHANNEL ANTAGONISTS” (Northwestern University, priority 2011, published 2021):
“And” between values parts separate entries of the source, which are not always exact repeats. Identical values can stand only once. Like-named read-outs stand apart in the source and are kept apart here.

How the values were obtained:
[1] = biological target: T1, Cav1.3 L-type Ca channels (Rattus norvegicus, UniProt P27732); assay: FLIPR Fluo-8 calcium assay, Cav1.3 channel inhibition in HEK293 cells; type: cell-based; conditions: for selectivity for Cav1.3 over Cav1.2: ratio of IC50 values for the two cell lines
T1 construct: expressed in transfected cells; host or cells: HEK293

[2] = biological target: Cav1.2 L-type Ca channels (Oryctolagus cuniculus, UniProt P15381); assay: FLIPR Fluo-8 calcium assay, Cav1.2 channel inhibition in HEK293 cells
Cav1.2 L-type Ca channels, sequence (P15381 whole entry): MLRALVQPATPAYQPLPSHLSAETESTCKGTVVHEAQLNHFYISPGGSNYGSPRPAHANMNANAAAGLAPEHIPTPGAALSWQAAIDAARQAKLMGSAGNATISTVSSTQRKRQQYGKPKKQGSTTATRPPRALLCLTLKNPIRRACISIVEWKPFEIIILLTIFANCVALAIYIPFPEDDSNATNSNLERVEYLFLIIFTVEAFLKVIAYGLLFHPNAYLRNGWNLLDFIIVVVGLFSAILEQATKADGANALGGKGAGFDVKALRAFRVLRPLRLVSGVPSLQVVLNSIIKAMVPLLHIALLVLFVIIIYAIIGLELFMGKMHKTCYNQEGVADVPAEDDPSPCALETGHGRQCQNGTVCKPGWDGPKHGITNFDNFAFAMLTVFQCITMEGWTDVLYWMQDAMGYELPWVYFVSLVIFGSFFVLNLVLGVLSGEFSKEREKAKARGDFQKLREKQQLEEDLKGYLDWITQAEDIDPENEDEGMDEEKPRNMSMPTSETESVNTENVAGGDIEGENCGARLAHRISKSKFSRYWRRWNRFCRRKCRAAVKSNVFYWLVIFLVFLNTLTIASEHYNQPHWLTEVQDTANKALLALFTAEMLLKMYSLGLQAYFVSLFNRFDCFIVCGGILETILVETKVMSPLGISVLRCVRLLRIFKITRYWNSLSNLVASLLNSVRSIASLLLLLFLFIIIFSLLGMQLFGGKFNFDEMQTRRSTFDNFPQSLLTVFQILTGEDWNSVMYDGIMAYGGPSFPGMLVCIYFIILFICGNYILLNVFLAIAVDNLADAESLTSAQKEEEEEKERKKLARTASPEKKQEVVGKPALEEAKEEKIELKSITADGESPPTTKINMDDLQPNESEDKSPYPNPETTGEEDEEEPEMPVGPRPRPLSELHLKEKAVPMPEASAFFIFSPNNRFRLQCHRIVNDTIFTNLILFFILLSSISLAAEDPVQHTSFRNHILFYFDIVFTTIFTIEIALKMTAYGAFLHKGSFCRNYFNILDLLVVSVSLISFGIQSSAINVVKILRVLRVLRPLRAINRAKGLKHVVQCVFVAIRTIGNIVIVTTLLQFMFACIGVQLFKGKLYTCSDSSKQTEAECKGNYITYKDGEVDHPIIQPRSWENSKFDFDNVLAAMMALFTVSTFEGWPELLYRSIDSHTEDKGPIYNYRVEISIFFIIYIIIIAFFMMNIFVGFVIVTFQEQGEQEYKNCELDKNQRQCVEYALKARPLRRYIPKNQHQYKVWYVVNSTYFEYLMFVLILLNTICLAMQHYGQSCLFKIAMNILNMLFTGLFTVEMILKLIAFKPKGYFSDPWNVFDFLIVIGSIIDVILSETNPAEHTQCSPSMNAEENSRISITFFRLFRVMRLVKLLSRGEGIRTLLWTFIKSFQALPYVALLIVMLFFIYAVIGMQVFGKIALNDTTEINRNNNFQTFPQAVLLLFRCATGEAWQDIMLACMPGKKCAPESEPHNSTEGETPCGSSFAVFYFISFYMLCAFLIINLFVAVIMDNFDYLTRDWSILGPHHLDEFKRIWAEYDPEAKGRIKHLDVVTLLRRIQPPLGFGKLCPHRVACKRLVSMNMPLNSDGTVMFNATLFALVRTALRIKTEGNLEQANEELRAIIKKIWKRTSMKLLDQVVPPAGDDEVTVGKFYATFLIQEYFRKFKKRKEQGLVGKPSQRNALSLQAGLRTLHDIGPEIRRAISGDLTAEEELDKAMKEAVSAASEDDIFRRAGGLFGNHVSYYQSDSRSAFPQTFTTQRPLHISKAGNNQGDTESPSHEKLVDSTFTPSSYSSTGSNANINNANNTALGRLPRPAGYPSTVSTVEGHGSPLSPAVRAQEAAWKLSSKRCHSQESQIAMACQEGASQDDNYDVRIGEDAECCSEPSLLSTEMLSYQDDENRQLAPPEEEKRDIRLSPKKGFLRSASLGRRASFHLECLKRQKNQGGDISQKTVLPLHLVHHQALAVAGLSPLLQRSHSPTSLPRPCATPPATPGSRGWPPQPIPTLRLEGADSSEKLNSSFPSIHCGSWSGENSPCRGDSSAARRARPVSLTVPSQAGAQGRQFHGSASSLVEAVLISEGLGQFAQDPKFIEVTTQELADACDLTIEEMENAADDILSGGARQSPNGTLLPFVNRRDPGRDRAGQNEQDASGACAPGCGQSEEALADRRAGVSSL
Cav1.2 L-type Ca channels, sequence (P54284 whole entry partner): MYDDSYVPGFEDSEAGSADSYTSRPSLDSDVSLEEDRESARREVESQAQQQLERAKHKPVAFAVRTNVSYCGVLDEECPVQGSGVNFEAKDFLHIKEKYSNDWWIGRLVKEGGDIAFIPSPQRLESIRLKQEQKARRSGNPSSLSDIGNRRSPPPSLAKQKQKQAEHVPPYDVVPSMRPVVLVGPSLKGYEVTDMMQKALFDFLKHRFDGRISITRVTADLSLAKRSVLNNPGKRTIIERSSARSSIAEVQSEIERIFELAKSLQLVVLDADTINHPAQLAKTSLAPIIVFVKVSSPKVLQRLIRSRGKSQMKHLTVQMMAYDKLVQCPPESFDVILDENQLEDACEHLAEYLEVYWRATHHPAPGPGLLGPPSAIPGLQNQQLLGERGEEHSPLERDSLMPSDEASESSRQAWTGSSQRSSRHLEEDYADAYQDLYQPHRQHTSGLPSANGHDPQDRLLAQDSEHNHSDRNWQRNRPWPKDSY
Cav1.2 L-type Ca channels, sequence (P54289 25-956 partner limits assumed): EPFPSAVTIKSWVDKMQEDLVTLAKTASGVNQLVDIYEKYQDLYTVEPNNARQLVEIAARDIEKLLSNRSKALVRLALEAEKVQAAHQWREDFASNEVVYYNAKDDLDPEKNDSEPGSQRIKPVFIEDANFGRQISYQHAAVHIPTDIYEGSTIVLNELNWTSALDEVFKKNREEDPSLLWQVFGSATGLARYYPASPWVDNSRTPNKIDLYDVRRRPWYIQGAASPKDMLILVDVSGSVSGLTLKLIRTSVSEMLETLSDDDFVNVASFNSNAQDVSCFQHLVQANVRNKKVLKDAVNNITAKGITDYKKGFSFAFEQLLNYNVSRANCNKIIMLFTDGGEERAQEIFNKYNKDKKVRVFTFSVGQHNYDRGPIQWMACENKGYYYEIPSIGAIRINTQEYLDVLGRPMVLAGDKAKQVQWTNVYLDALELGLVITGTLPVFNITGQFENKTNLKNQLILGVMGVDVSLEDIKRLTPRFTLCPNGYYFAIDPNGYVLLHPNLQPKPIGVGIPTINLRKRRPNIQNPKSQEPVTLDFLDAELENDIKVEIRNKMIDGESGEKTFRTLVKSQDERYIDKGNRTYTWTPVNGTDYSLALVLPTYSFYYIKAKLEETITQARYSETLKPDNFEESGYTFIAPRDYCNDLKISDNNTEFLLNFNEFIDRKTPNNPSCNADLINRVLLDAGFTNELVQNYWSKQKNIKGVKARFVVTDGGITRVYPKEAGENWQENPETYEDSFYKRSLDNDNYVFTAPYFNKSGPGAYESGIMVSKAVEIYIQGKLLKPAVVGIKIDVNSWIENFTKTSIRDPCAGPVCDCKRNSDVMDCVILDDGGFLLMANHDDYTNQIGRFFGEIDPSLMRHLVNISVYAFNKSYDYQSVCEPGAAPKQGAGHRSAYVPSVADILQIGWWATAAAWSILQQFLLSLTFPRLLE
Cav1.2 L-type Ca channels, sequence (P54289 957-1103 partner limits assumed): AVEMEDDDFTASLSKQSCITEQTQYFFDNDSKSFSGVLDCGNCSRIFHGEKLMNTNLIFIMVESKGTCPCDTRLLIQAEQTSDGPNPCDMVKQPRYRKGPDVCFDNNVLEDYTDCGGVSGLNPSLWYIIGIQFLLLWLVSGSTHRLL

[3] = biological target: T2, Cav1.2 (α1C) LTCC (Oryctolagus cuniculus, UniProt P15381); assay: Whole-cell voltage-clamp recordings, Cav1.2 LTCC in HEK293 cells; type: cell-based, rabbit; conditions: 1 μM
T2 construct: expressed in transfected cells; host or cells: HEK-293, stably transfected
T2 sequence (P15381 whole entry): as the sequence (P15381 whole entry) above
T2 sequence (P54284 whole entry partner): as the sequence (P54284 whole entry partner) above
T2 sequence (P54289 25-956 partner limits assumed): as the sequence (P54289 25-956 partner limits assumed) above
T2 sequence (P54289 957-1103 partner limits assumed): as the sequence (P54289 957-1103 partner limits assumed) above
Method: (§1) Using the same cell lines from the initial screening, whole-cell voltage clamp recordings were made of either Cav1.3 LTCC or Cav1.2 LTCC containing HEK293 cells in the absence or presence of SKP00 4C08 at 1 μM. Bath application of SKP00 4C08 blocks ˜35% of the Cav1.3 channel current. SKP00 4C08 at the same concentration had no effect on Cav1.2 channel currents.
(§2) Bioactivity Confirmation Using Whole-cell Patch Clamp. Because IC50 values depend strongly on assay conditions, the inhibitory activity of compound 8 (SKP00 4C08) was confirmed at Cav1.3 and Cav1.2 channels in HEK293 cells by whole-cell voltage-clamp electrophysiological recordings (FIG. 8).
(§3) Whole-cell voltage-clamp recordings (FIG. 8A) were made in the absence (black, top) or presence (red, top) of compound 8 (SKP00 4C08) (5 μM). Superfusion of selected PYT blocks evoked barium currents in both LTCC cell lines in keeping with the data from our initial screen (FIG. 5B).
(§4) General Procedure for Whole-cell Patch Clamp. […] Barium currents were measured from whole-cell voltage patch-clamp recordings using a Pulse 8.4 software data acquisition system (HEKA, Germany). […] Electrophysiological signals were analyzed using […] […]

[4] = biological target: T3, Cav1.2 (α1C) L-type calcium channel (Oryctolagus cuniculus, UniProt P15381); assay: as above; type: cell-based, rabbit; conditions: rabbit, pH 7.4; 5 μM, whole-cell voltage clamp; read-out: inhibition of Cav1.2 channels
T3 construct: expressed in transfected cells; host or cells: HEK-293, stably transfected
T3 sequence (P15381 whole entry): as the sequence (P15381 whole entry) above
T3 sequence (P54284 whole entry partner): as the sequence (P54284 whole entry partner) above
T3 sequence (P54289 25-956 partner limits assumed): as the sequence (P54289 25-956 partner limits assumed) above
T3 sequence (P54289 957-1103 partner limits assumed): as the sequence (P54289 957-1103 partner limits assumed) above
Method: as §1, §2, §3, §4

[5] = biological target: T4, Cav1.3 (α1D) LTCC (Rattus norvegicus, UniProt P27732); assay: Whole-cell voltage-clamp recordings, Cav1.3 LTCC in HEK293 cells; type: cell-based
T4 construct: expressed in transfected cells; host or cells: HEK-293, stably transfected
Method: as §1, §2, §3
General Procedure for Whole-cell Patch Clamp. HEK-293 cells were stably transfected with rat Cav1.3 (α1D) or rabbit Cav1.2 (α1C), Cavβ3, and Cavα2δ-1 and were cultured as previously reported (Chan et al. (2007) Nature 447:1081-1086.; herein incorporated by reference in its entirety). After 24-48 h of incubation at 37° C., cells underwent whole-cell patch-clamp electrophysiology. The external solution contained the following (in mM): 140 NaCl, 1 MgCl2, 10 BaCl2, 10 HEPES, 10 dextrose, 10 sucrose, and 20 CsCl at pH 7.4 and an osmolarity of ˜320 mOSml^−1. The test compound stock solutions in DMSO (10 mM or just DMSO) were diluted with the external solution to the desired concentration (10^−9 to 10^−6M), which was perfused (2 mL/min) into the bath while measuring the evoked barium currents. For experiments where dose-response curves were obtained, local perfusion of the desired concentration was employed. Barium currents were measured from whole-cell voltage patch-clamp recordings using a Pulse 8.4 software data acquisition system (HEKA, Germany). […] Electrophysiological signals were analyzed using […] […]

[6] = IC50 (μM) CaV1.3, first library, FLIPR, HEK293, value (±SD)
[7] = IC50 (μM) Cav1.3, Table 4, 12 concentration points (0.1 nM~100 μM) in duplicate
[8] = Table 4, Cav1.3 relative to Cav1.2 from IC50 values
[9] = first library, ratio of IC50 Cav1.2 to Cav1.3
[10] = IC50 (μM) CaV1.2, first library, FLIPR, HEK293, value (±SD)
[11] = IC50 (μM) Cav1.2, Table 4, 12 concentration points (0.1 nM~100 μM) in duplicate
[12] = IC50 (μM) Cav1.3, second library, FLIPR, HEK293, value (±SD)
[13] = second library, ratio of IC50 Cav1.2 to Cav1.3
[14] = IC50 (μM) Cav1.2, second library, FLIPR, HEK293, value (±SD)
[15] = IC50 (μM) Cav1.3, third library, FLIPR, HEK293, value (±SD)
[16] = third library, ratio of IC50 Cav1.2 to Cav1.3
[17] = IC50 (μM) Cav1.2, third library, FLIPR, HEK293, value (±SD)

| SMILES | IC50 [1, 7] [µM] | Selectivity [1, 8] | IC50 [2, 11] [µM] | melting point [°C] | IC50 [1, 15] [µM] | Selectivity [1, 16] | IC50 [2, 17] [µM] | other results |
| --- | --- | --- | --- | --- | --- | --- | --- | --- |
| O=C1CC(=O)N(C2CCCCC2)C(=O)N1CCc1ccc(Cl)cc1 [Compound 1, N-(4-chlorophenethyl)-N′-cyclohexyl-pyrimidine-2,4,6-(1H,3H,5H)-trione] | 1.1 | 35 | 38.8 | 146 to 148 | – | – | – | IC50 [1, 6]: 1.1 µM; Selectivity [1, 9]: 35.1; IC50 [2, 10]: 38.8 µM |
| O=C1CC(=O)N(C2CCCC2)C(=O)N1CCCCc1ccccc1 [Compound 2, N-cyclopentyl-N′-(4-phenylbutyl)-pyrimidine-2,4,6-(1H,3H,5H)-trione] | 1.3 | 34 | 43.8 | 85 to 87 | – | – | – | IC50 [1, 6]: 1.3 µM; Selectivity [1, 9]: 33.7; IC50 [2, 10]: 43.8 µM |
| O=C1CC(=O)N(C2CCCCC2)C(=O)N1CCc1cccc(Cl)c1 [Compound 3, N-(3-chlorophenethyl)-N′-cyclohexyl-pyrimidine-2,4,6-(1H,3H,5H)-trione] | 1.4 | 38 | 53.1 | 153 to 154 | – | – | – | IC50 [1, 6]: 1.4 µM; Selectivity [1, 9]: 38.0; IC50 [2, 10]: 53.1 µM |
| Cc1cccc(CCN2C(=O)CC(=O)N(C3CCCCC3)C2=O)c1 [Compound 4, N-cyclohexyl-N′-(3-methylphenethyl)-pyrimidine-2,4,6-(1H,3H,5H)-trione] | 2.2 | 35 | 77.1 | 182 to 183 | – | – | – | IC50 [1, 12]: 2.2 µM; Selectivity [1, 13]: 35.4; IC50 [2, 14]: 77.1 µM |
| O=C1CC(=O)N(C2CCCCC2)C(=O)N1CCc1cccc(Br)c1 [Compound 5, N-(3-bromophenethyl)-N′-cyclohexyl-pyrimidine-2,4,6-(1H,3H,5H)-trione] | 1.3 | 34 | 45.8 | 154 to 155 | – | – | – | IC50 [1, 12]: 1.3 µM; Selectivity [1, 13]: 34.0; IC50 [2, 14]: 45.8 µM |
| O=C1CC(=O)N(C2CCCCC2)C(=O)N1CCc1cccc(C(F)(F)F)c1 [Compound 6, N-cyclohexyl-N′-(3-thrifluoromethylphenethyl)-pyrimidine-2,4,6-(1H,3H,5H)-trione] | 1.3 | 20 | 25.8 | 105 to 107 | – | – | – | IC50 [1, 12]: 1.3 µM; Selectivity [1, 13]: 20.3; IC50 [2, 14]: 25.8 µM |
| O=C1CC(=O)N(C2CCCC2)C(=O)N1CCc1cccc(C(F)(F)F)c1 [Compound 7, N-cyclopentyl-N′-(3-thrifluoromethylphenethyl)-pyrimidine-2,4,6-(1H,3H,5H)-trione] | 1.1 | 305 | 326 | 97 to 98 | 1.1 | 305.4 | 326 | – |
| O=C1CC(=O)N(C2CCCC2)C(=O)N1CCc1cccc(Cl)c1 [Compound 8, N-(3-chlorophenethyl)-N′-cyclopentyl-pyrimidine-2,4,6-(1H,3H,5H)-trione] | 1.7 | 1008 | 1730 | 131 to 132 | 1.7 | 1008.2 | 1730 | IC50 ([1]; IC50 with Cav1.3): 1.61 µM and 1.7 µM; inhibition ratio Cav1.3 vs Cav1.2, FLIPR assay ([1]; at 5.5 (unit not given)): 11 fold; selectivity for Cav1.3 over Cav1.2 [1]: 1000 fold; selectivity for Cav1.3 over Cav1.2 ([1]; listed as SKP00 4C08): greater than 1000 fold; effect on Cav1.2 channel currents [3]: no effect; inhibition at 5 µM [4]: 3.8 ± 2.9%; block of Cav1.3 channel current ([5]; 1 μM, bath application): ~35%; inhibition ratio Cav1.3 vs Cav1.2 ([5]; 5 μM, whole-cell voltage clamp): roughly 12 fold; inhibition at 5 µM ([5]; HEK293, 5 μM, whole-cell voltage clamp, read-out: inhibition of Cav1.3 channels): 43.8 ± 11% |
| O=C1CC(=O)N(C2CCC2)C(=O)N1CCc1ccc(Cl)cc1 [Compound 100] | – | – | – | – | – | 2.8 | 4.9 | IC50 ([1]; third library, FLIPR, HEK293, value (±SD), read-out: IC50 (μM) Cav1.3): 1.8 µM |
| O=C1CC(=O)N(C2CC2)C(=O)N1CCc1cccc(Cl)c1 [Compound 101] | – | – | – | – | 26.8 | 0.2 | – | IC50 [2]: 5.4 µM |
| O=C1CC(=O)N(C2CC2)C(=O)N1CCc1ccc(Cl)cc1 [Compound 102] | – | – | – | – | 19.6 | 0.3 | – | IC50 [2]: 5 µM |
| O=C1CC(=O)N(c2cccc(F)c2)C(=O)N1CCc1cccc(Cl)c1 [Compound 103] | – | – | – | – | 18.6 | 0.5 | 9.7 | – |
| CC(C)(C)N1C(=O)CC(=O)N(CCc2cccc(Cl)c2)C1=O [Compound 105] | – | – | – | – | 10.5 | 0.7 | – | IC50 [2]: 7.2 µM |
| CC(C)(C)N1C(=O)CC(=O)N(CCc2cccc(C(F)(F)F)c2)C1=O [Compound 106] | – | – | – | – | 1.1 | 5.7 | 6.1 | – |
| CCC(C)N1C(=O)CC(=O)N(CCc2cccc(Cl)c2)C1=O (centres unmarked) [Compound 107] | – | – | – | – | 1.9 | 23.6 | – | IC50 [2]: 45.4 µM |
| CCC(C)N1C(=O)CC(=O)N(CCc2cccc(C(F)(F)F)c2)C1=O (centres unmarked) [Compound 108] | – | – | – | – | 3.4 | 10.5 | 35.9 | – |
| O=C1CC(=O)N(CC2CCCCC2)C(=O)N1CCc1cccc(Cl)c1 [Compound 109] | – | – | – | – | 1.5 | 30.5 | 44.6 | – |
| O=C1CC(=O)N(CC2CCCCC2)C(=O)N1CCc1ccc(Cl)cc1 [Compound 110] | – | – | – | – | 1.7 | 27.3 | 46.8 | – |
| O=C1CC(=O)N(CC2CCCCC2)C(=O)N1CCc1cccc(C(F)(F)F)c1 [Compound 111] | – | – | – | – | 0.9 | 22.1 | 20.4 | – |
| O=C1CC(=O)N(C23CC4CC(CC(C4)C2)C3)C(=O)N1CCc1ccc(Cl)cc1 [Compound 114] | – | – | – | – | 3.2 | 0.8 | 2.6 | – |
| O=C1CC(=O)N(C23CC4CC(CC(C4)C2)C3)C(=O)N1CCc1cccc(Cl)c1 [Compound 115] | – | – | – | – | 2.6 | 0.7 | 1.9 | – |
| O=C1CC(=O)N(C2C3CC4CC(C3)CC2C4)C(=O)N1CCc1ccc(Cl)cc1 (centres unmarked) [Compound 116] | – | – | – | – | 2.5 | 18.3 | 40.4 | – |
| O=C1CC(=O)N(C2C3CC4CC(C3)CC2C4)C(=O)N1CCc1cccc(Cl)c1 (centres unmarked) [Compound 117] | – | – | – | – | 1.6 | 2.0 | 3.1 | – |
